Measured values from PubChem BioAssay (NCI).
Values joined by “and” are separate entries in the source; they are usually repeats but may differ in a detail not shown here. Equal values may be shown once.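 Results reflect a 48-hour exposure of cells in 96-well plates to compound at five concentrations. GI50 marks 50% less growth. Definition used: TGI = concentration required for complete inhibition of growth.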

Key:
Assay in all cases: NCI tumour cell line growth inhibition, 48 h
OVCAR-4 ovarian = test system: OVCAR-4 ovarian
SF-268 CNS = test system: SF-268 CNS
786-0 renal = test system: 786-0 renal
HT29 colon = test system: HT29 colon
NCI/ADR-RES ovarian = test system: NCI/ADR-RES ovarian
NCI-H226 lung = test system: NCI-H226 lung
OVCAR-5 ovarian = test system: OVCAR-5 ovarian
UACC-257 melanoma = test system: UACC-257 melanoma
DU-145 prostate = test system: DU-145 prostate
SK-MEL-2 melanoma = test system: SK-MEL-2 melanoma

## Cc1ccc(/C=C2\CCCCC2=O)cc1
OVCAR-4 ovarian
  TGI: > 100 µM
SF-268 CNS
  TGI: > 100 µM
786-0 renal
  TGI: > 100 µM
HT29 colon
  TGI: > 100 µM

## Cc1c(C(=O)Nc2ccc(N3C[C@@H](C)O[C@@H](C)C3)nc2)cccc1-c1ccc(OC(F)(F)F)cc1
NCI/ADR-RES ovarian
  GI50: 5.69 µM and 13.5 µM
  TGI: 26.6 µM and 42.1 µM
NCI-H226 lung
  GI50: 8.11 µM and 13.8 µM
  TGI: 31.9 µM and 40.8 µM
OVCAR-4 ovarian
  GI50: 4.28 µM and 11.5 µM
  TGI: 21.4 µM and 36.2 µM
SF-268 CNS
  GI50: 7.22 µM and 5.25 µM
  TGI: 28.9 µM and 25.9 µM
OVCAR-5 ovarian
  GI50: 15.7 µM and 19.6 µM
  TGI: 42.7 µM and 48.9 µM
786-0 renal
  GI50: 3.61 µM and 5.77 µM
  TGI: 21 µM and 30 µM
HT29 colon
  GI50: 11.9 µM and 15.1 µM
  TGI: 41.7 µM and 64.4 µM
UACC-257 melanoma
  GI50: 10.7 µM and 12.6 µM
  TGI: 38 µM and 74.7 µM
DU-145 prostate
  GI50: 8.25 µM and 4.84 µM
  TGI: 25.1 µM and 20.9 µM
SK-MEL-2 melanoma
  GI50: 13.1 µM and 21.6 µM
  TGI: 44.9 µM and > 100 µM

## Cc1cc(I)cc(CN(C)CCCN2CCC(C)CC2)c1O
NCI/ADR-RES ovarian
  GI50: 14.3 µM
  TGI: 31 µM
NCI-H226 lung
  GI50: 17.2 µM
  TGI: 39.1 µM
OVCAR-4 ovarian
  GI50: 13.1 µM
  TGI: 31.7 µM
SF-268 CNS
  GI50: 14.6 µM
  TGI: 27.7 µM
OVCAR-5 ovarian
  GI50: 15.6 µM
  TGI: 34.4 µM
786-0 renal
  GI50: 13.4 µM
  TGI: 26.2 µM
HT29 colon
  GI50: 9.02 µM
  TGI: 21.3 µM
UACC-257 melanoma
  GI50: 11.8 µM
  TGI: 25.3 µM
DU-145 prostate
  GI50: 15.5 µM
  TGI: 28.8 µM
SK-MEL-2 melanoma
  GI50: 17.4 µM
  TGI: 33.9 µM

## c1ccc2c(N=NSc3ncnc4nc[nH]c34)c3ccccc3nc2c1
NCI/ADR-RES ovarian
  GI50: 1.19 µM
  TGI: 8.39 µM
NCI-H226 lung
  GI50: 0.641 µM
  TGI: 2.31 µM
OVCAR-4 ovarian
  GI50: 1.63 µM
  TGI: 10.5 µM
SF-268 CNS
  GI50: 1.8 µM
  TGI: 6.53 µM
OVCAR-5 ovarian
  GI50: 1.89 µM
  TGI: 6.3 µM
786-0 renal
  GI50: 1.79 µM
  TGI: 13.8 µM
HT29 colon
  GI50: 0.398 µM
  TGI: 2.16 µM
UACC-257 melanoma
  GI50: 0.662 µM
  TGI: 6.56 µM
DU-145 prostate
  GI50: 1.4 µM
  TGI: 6.63 µM
SK-MEL-2 melanoma
  GI50: 1.64 µM
  TGI: 3.61 µM

## Clc1cnc(Nc2ccc(OCCN3CCCC3)cc2)nc1NCc1ccco1
NCI/ADR-RES ovarian
  GI50: 3.15 µM
  TGI: 9.53 µM
NCI-H226 lung
  GI50: 0.671 µM
  TGI: 11.3 µM
OVCAR-4 ovarian
  GI50: 2.86 µM
  TGI: 13.9 µM
SF-268 CNS
  GI50: 2.33 µM
  TGI: 6.47 µM
OVCAR-5 ovarian
  GI50: 1.95 µM
  TGI: > 100 µM
786-0 renal
  GI50: 3.15 µM
  TGI: 13.3 µM
HT29 colon
  GI50: 2.19 µM
  TGI: 9.18 µM
UACC-257 melanoma
  GI50: 2.44 µM
  TGI: 6.32 µM
DU-145 prostate
  GI50: 3.43 µM
  TGI: > 100 µM
SK-MEL-2 melanoma
  GI50: 1.8 µM
  TGI: 3.48 µM

## CN1CCN(Cc2ccc(NC(=O)c3cncc(C#Cc4ccc(N)nc4)c3)cc2C(F)(F)F)CC1
NCI/ADR-RES ovarian
  GI50: 1.9 µM
  TGI: 10.3 µM
NCI-H226 lung
  GI50: 0.358 µM
  TGI: 2.75 µM
OVCAR-4 ovarian
  GI50: 0.46 µM
  TGI: 4.5 µM
SF-268 CNS
  GI50: 1.09 µM
  TGI: 5.3 µM
OVCAR-5 ovarian
  GI50: 1.38 µM
  TGI: 7.22 µM
786-0 renal
  GI50: 1.76 µM
  TGI: 6.83 µM
HT29 colon
  GI50: 0.728 µM
  TGI: 4.59 µM
UACC-257 melanoma
  GI50: 1.42 µM
  TGI: 5.27 µM
DU-145 prostate
  GI50: 0.845 µM
  TGI: 6.71 µM
SK-MEL-2 melanoma
  GI50: 0.363 µM
  TGI: 1.36 µM

## Cc1ccsc1C(NC(=O)c1ccccc1)c1cc(Cl)c2cccnc2c1O (stereo not given)
NCI/ADR-RES ovarian
  GI50: 0.284 µM
  TGI: 7.18 µM
NCI-H226 lung
  GI50: 1.4 µM
  TGI: 7.35 µM
OVCAR-4 ovarian
  GI50: 0.479 µM
  TGI: 12.8 µM
SF-268 CNS
  GI50: 0.6 µM
  TGI: 12.1 µM
OVCAR-5 ovarian
  GI50: 2.67 µM
  TGI: 42 µM
786-0 renal
  GI50: 1.19 µM
  TGI: 11.4 µM
HT29 colon
  GI50: 0.548 µM
  TGI: 20.7 µM
DU-145 prostate
  GI50: 0.869 µM
  TGI: 14.2 µM
SK-MEL-2 melanoma
  GI50: 0.609 µM
  TGI: 8.75 µM

## CN1C(=O)N(C)C2C1NC(=S)N2/N=C/C=C/c1ccccc1[N+](=O)[O-] (stereo not given)
NCI/ADR-RES ovarian
  GI50: 2.16 µM
  TGI: > 100 µM
NCI-H226 lung
  GI50: 17.5 µM
  TGI: > 100 µM
OVCAR-4 ovarian
  GI50: > 100 µM
  TGI: > 100 µM
SF-268 CNS
  GI50: 2.67 µM
  TGI: > 100 µM
OVCAR-5 ovarian
  GI50: 3.88 µM
  TGI: > 100 µM
786-0 renal
  GI50: 0.835 µM
  TGI: > 100 µM
UACC-257 melanoma
  GI50: > 100 µM
  TGI: > 100 µM
DU-145 prostate
  GI50: 3.81 µM
  TGI: > 100 µM
SK-MEL-2 melanoma
  GI50: 0.587 µM
  TGI: > 100 µM

## O=[N+]([O-])c1ccc2c(c1)C(N1CCN(CCO)CC1)Cc1ccc(F)cc1S2 (stereo not given)
NCI/ADR-RES ovarian
  TGI: 25.4 µM
NCI-H226 lung
  TGI: 23.1 µM
OVCAR-4 ovarian
  TGI: 33.5 µM
SF-268 CNS
  TGI: 31.4 µM
OVCAR-5 ovarian
  TGI: 26.9 µM
786-0 renal
  TGI: 26.4 µM
HT29 colon
  TGI: 7.14 µM
UACC-257 melanoma
  TGI: 7.01 µM
DU-145 prostate
  TGI: 29 µM

## NC1CC(=O)c2c(-c3cccs3)sc(-c3cccs3)c21 (stereo not given)
NCI/ADR-RES ovarian
  GI50: 29.5 µM
  TGI: > 100 µM
NCI-H226 lung
  GI50: 21.6 µM
  TGI: 48.3 µM
OVCAR-4 ovarian
  GI50: 43 µM
  TGI: > 100 µM
SF-268 CNS
  GI50: 30.8 µM
  TGI: > 100 µM
786-0 renal
  GI50: 11.7 µM
  TGI: > 100 µM
HT29 colon
  GI50: 19.5 µM
  TGI: 50.1 µM
UACC-257 melanoma
  GI50: 52.3 µM
  TGI: > 100 µM
DU-145 prostate
  GI50: 14.4 µM
  TGI: 32.9 µM

## Nc1nc(N)c2c(ccc3c2ccn3Cc2cccc([N+](=O)[O-])c2)n1
NCI/ADR-RES ovarian
  GI50: 0.0775 µM and 0.0835 µM
  TGI: 18.6 µM
NCI-H226 lung
  GI50: 0.272 µM
  TGI: 2.42 µM
OVCAR-4 ovarian
  GI50: 1.15 µM
  TGI: 2.59 µM
SF-268 CNS
  GI50: 0.0535 µM
  TGI: 1.99 µM
OVCAR-5 ovarian
  GI50: 0.0504 µM
  TGI: 2.36 µM
786-0 renal
  GI50: 0.0411 µM
  TGI: 1.5 µM
UACC-257 melanoma
  GI50: 1.07 µM
  TGI: 2.47 µM
DU-145 prostate
  GI50: 0.151 µM and 0.086 µM
  TGI: 2.08 µM and 2 µM
SK-MEL-2 melanoma
  GI50: 1.26 µM
  TGI: 2.62 µM

## CC(C)N1CC2CC(CN(C(=O)c3ccc(Cl)cc3)C2)C1
NCI-H226 lung
  TGI: > 100 µM
OVCAR-4 ovarian
  TGI: > 100 µM
SF-268 CNS
  TGI: > 100 µM
OVCAR-5 ovarian
  TGI: > 100 µM
786-0 renal
  TGI: > 100 µM
HT29 colon
  TGI: > 100 µM
UACC-257 melanoma
  TGI: > 100 µM
SK-MEL-2 melanoma
  TGI: > 100 µM

## CCCCCCCCCC1CC(=O)OC2=C1C(=O)CCC2 (stereo not given)
NCI-H226 lung
  TGI: > 100 µM
OVCAR-4 ovarian
  TGI: > 100 µM
SF-268 CNS
  TGI: > 100 µM
OVCAR-5 ovarian
  TGI: > 100 µM
786-0 renal
  TGI: > 100 µM
HT29 colon
  TGI: > 100 µM
UACC-257 melanoma
  TGI: > 100 µM
SK-MEL-2 melanoma
  TGI: > 100 µM

## COc1ccc(N=NC2=C(O)CCC2=O)cc1
NCI-H226 lung
  TGI: > 100 µM
OVCAR-4 ovarian
  TGI: > 100 µM
SF-268 CNS
  TGI: > 100 µM
OVCAR-5 ovarian
  TGI: > 100 µM
786-0 renal
  TGI: > 100 µM
HT29 colon
  TGI: > 100 µM
UACC-257 melanoma
  TGI: > 100 µM
SK-MEL-2 melanoma
  TGI: > 100 µM

## CCCCCCC(=O)NC1=C(N2CC2)C(=O)C(NC(=O)CCCCCC)=C(N2CC2)C1=O
NCI/ADR-RES ovarian
  GI50: 3.18 µM
  TGI: > 100 µM
NCI-H226 lung
  GI50: > 100 µM
  TGI: > 100 µM
OVCAR-4 ovarian
  GI50: 3.11 µM
  TGI: > 100 µM
SF-268 CNS
  GI50: 2.23 µM
  TGI: > 100 µM
OVCAR-5 ovarian
  GI50: > 100 µM
  TGI: > 100 µM
786-0 renal
  GI50: 4.25 µM
  TGI: > 100 µM
HT29 colon
  GI50: 2.94 µM
  TGI: > 100 µM
DU-145 prostate
  GI50: 1.13 µM
  TGI: > 100 µM
SK-MEL-2 melanoma
  GI50: 2.52 µM
  TGI: 6.14 µM
